The source of these data is patent publication US20160033528A1, “Methods for Selecting Peptides that Bind to Disease Specific Antibodies, Disease Specific Peptides and Uses Thereof” (The Regents of the University of California, priority 2014, published 2016).

The subject of assay [1] is CD patient IgG antibodies. Put plainly: Individual clone reactivity with individual patient sera by flow cytometry (second-generation PEQ peptides). The settings on record: CD case sera n=18 not used for screening. The class given is binding, human. On the procedure:
Depletion of E. coli binding serum antibodies. Diluted sera were depleted of E. coli binding antibodies prior to library screening and clone reactivity assays. To remove E. coli binding antibodies, an overnight culture of cells expressing the library scaffold (eCPX) with or without the v114 peptide were diluted (1:50) in fresh media and grown separately until the optical density at 600 nm (OD600) was ˜0.6. Cells were induced for 1 hr at 37° C., and then 2×10^9 cells from each culture were combined and centrifuged at 3000 ref for 5 min. Cells were resuspended in PBS-T (1 mL) containing 100× diluted pooled or individual sera. Samples were incubated overnight at 4° C. on an orbital shaker at 20 rpm. After incubation, samples were centrifuged at 3000 ref for 5 min (2×), and the depleted serum supernatant was recovered and stored at 4° C. for up to three days before use.
For flow cytometric analysis and sorting, induced cells corresponding to 5× the estimated remaining clonal diversity were incubated with 1:100-1:200 dilution of pooled sera for 45 min at 4° C. followed by centrifugation and removal of unbound supernatant (3× washing). The pellet was then resuspended in the respective 1:500 biotinylated goat anti-human secondary antibody (IgA/IgG/IgM) in 1× PBST at 4° C. for 45 min followed by centrifugation and removal of unbound supernatant (2× washing). For tertiary labeling, the pellet resuspended in 15 nM SA-PE in 1× PBST at 4° C. for 45 min, followed by another wash via centrifugation and resuspension (3× washing) in ice-cold PBST at a volume between 10^7 and 10^8 cells/mL. Resuspended cells were analyzed using a FACSAria cell sorter (Becton Dickinson) using 488-nm excitation. After sorting, retained cells were amplified for further rounds of sorting by overnight growth and plated to isolate single clones. […]
In vitro evolution of CD specific peptides. […] To assess the diagnostic sensitivity and specificity of individual peptides, the reactivities of one representative clone from each motif group was measured using CD case (n=18) and non-CD control sera (n=5) not used for screening. […]
On the technique in general: In flow cytometry, cells or beads pass a laser one at a time.

In another assay the test system is anti-CSE antibodies. Put plainly: CSE reactivity in matched CD sera at diagnosis and after one year of gluten-free diet. Format: binding, human. The conditions noted are these: 11 CD cases. The text has this:
Active CD patients (n=54) ranging in age from 18-74 had small intestinal biopsies with a Marsh 3a-3c histological lesion, tested seropositive for transglutaminase (TG2) and endomysium (EMA) autoantibodies, and were Caucasian. Human lymphocyte antigens (HLA)-typing for the presence of DQ2 or DQ8 alleles was available for 42/54 CD sera.
Directed evolution pooled clone & individual patient single clone reactivity assays. To compare the reactivity of consensus epitopes from each generation, overnight cultures of individual clones within a consensus epitope family (4-5 clones/family) were diluted (1:50) in fresh media and grown until the OD600 was between 0.5 and 0.7. Cultures of each individual Clones were induced for 45 min, and 10^6 cells from each culture were pooled together. Pooled consensus epitope families were assayed for binding to case and control group sera (3 subjects/group) by flow cytometry. […] Cells expressing the eCPX scaffold without a peptide insert were used as a negative (background) control. […]
To determine prevalence of anti-CSE antibodies in CD and control subjects, CD and non-CD sera (n=231) were assessed for reactivity to the CSE peptide: MDVRCRDSFVYQCHVGT (SEQ ID NO: 2). […]

Assay [2] relates to serum IgA of patients with CD. The conditions noted are these: cited from earlier work.

With “GQGQAFPEQGSVPIN [A/VFPEQ motif peptide, focused library 1]”, the “CD sera the peptide reacted with (reactive/tested)” value in assay [1] is given as 14/18.

Take MDVRCRDSFVYQCHVGT [CSE peptide]: the “patients with reduced, but non-zero, levels of epitope reactivity after a GFD” value with anti-CSE antibodies (after one year on a gluten-free diet) is 8/11. In addition, the “active CD patients reactive” value with anti-CSE antibodies (sera at time-of-diagnosis) is on record as 10/11. Take “VAWTMGPEQPLVRAL [PEQPL motif peptide, focused library 1]”: the “CD sera the peptide reacted with (reactive/tested)” value in assay [1] was 11/18. For the sequence “VVKGGSSSLGW [celiac peptide, synthetic peptide of Giovanna et al., PLOS Med. 2006]”, in assay [2], the “individual patients with CD whose serum IgA specifically recognized the peptide” value is recorded as 68%.

“VWDRGVPEQMFPRKG [PEQxFP motif derived peptide, focused library 1]”: in assay [1], the “CD sera the peptide reacted with (reactive/tested)” value is recorded as 18/18.
